The text below walks through data of patent US5935954A, “Compounds with improved multi-drug resistance activity” (Vertex Pharmaceuticals Incorporated, priority 1997, dated 1999).

Assay [1] concerns L1210 mouse leukemia cells transformed with the pHaMDR1/A retrovirus carrying a MDR1 cDNA. As to the kind of experiment: cells. The format is cell-based. The settings on record: for MDR Ratio: IC50 Dox / IC50 Dox+Inhibitor, 2.5 μM compound; for IC50: Mus musculus, doxorubicin alone. How it is done:
To assay the ability of the compounds according to this invention to increase the antiproliferative activity of a drug, cell lines which are known to be resistant to a particular drug may be used. These cell lines include, but are not limited to, the L1210, P388D, CHO and MCF7 cell lines. Alternatively, resistant cell lines may be developed. The cell line is exposed to the drug to which it is resistant, or to the test compound; cell viability is then measured and compared to the viability of cells which are exposed to the drug in the presence of the test compound.
To carry out assays using L1210 mouse leukemia cells transformed with the pHaMDR1/A retrovirus carrying a MDR1 cDNA, we follow the procedure described by Pastan et al., Proc. Natl. Acad. Sci., Vol. 85, […] 4490 (1988). The resistant line, labelled L1210VMDRC.06, is obtained from Dr. M. M. Gottesman of the National Cancer Institute. Drug-resistant transfectants are selected by culturing cells in […] colchicine.
Multi-drug resistance assays are conducted by plating cells (2×10^3, 1×10^4, or 5×10^4 cells/well) in 96 well microtiter plates and exposing them to a concentration range of doxorubicin (50 nM-10 μM) in the presence or absence of multi-drug resistance modifier compounds ("MDR inhibitors") of this invention (1, 2.5 or 10 μM) as described in Ford et al., Cancer Res., Vol. 50, 1748-1756. (1990). After culture for 3 days, the viability of cells is quantitated using MTT (Mossman) or XTT dyes to assess mitochondrial function. Also see, Mossman T., J. Immunol. Methods, Vol. 65, 55-63 (1983).
Results are determined by comparison of the IC50 for doxorubicin alone to the IC50 for doxorubicin+MDR inhibitor. An MDR ratio is calculated (IC50 Dox/ IC50 Dox+Inhibitor) and the integer value used for comparison of compound potencies. […]

Another assay concerns the target FKBP12 (Homo sapiens, UniProt P62942). The experiment in a line: FKBP12 binding assay (inhibition of rotomase activity). To be noted: apparent Ki. The format is biochemical. From the text:
Preferably, the assay measures inhibition of FKBP12 rotomase activity. Such an assay has also been described by M. W. Harding et al., supra and by J. J. Siekierka et al., supra. In this assay the isomerization of an artificial substrate--N-succinyl-Ala-Ala-Pro-Phe-p-nitroanilide--is followed spectrophotometrically. The assay includes the cis form of the substrate, FKBP12, the inhibitor and chymotrypsin. Chymotrypsin is able to cleave p-nitroanilide from the trans form of the substrate, but not the cis form. Release of p-nitroanilide is measured.
The inhibition of FKBP rotomase activity by the preferred FKBP12 binding compounds present in the compositions of this invention was assayed. In this assay various quantities of FKBP12 binding compound (0nM-10 μM) were added to cis-N-succinyl-Ala-Ala-Pro-Phe-p-nitroanilide in the presence of FKBP12 and chymotrypsin. FKBP12 converts the cis form of the substrate to the trans form. This allows chymotrypsin to cleave p-nitroanilide from the substrate. Release of p-nitroanilide was measured spectrophotometrically. This assay allowed me to measure the change in the first order rate constant of the rotomase activity as a function of FKBP12 binding compound concentration and yielded an estimate of apparent Ki.

Molecules are shown by their SMILES. Read-outs that look alike come from different tables or passages of the source.

Chain of FKBP12 (P62942 whole entry, species assumed): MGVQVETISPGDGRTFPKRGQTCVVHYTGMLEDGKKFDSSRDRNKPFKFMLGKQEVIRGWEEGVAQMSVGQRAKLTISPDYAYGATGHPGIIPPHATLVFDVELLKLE

Take `CCCOc1ccc(OCCC)c(-c2cncc([C@@H](CCCc3ccccc3)OC(=O)[C@@H]3CCCCN3C(=O)C(=O)c3cc(OC)c(OC)c(OC)c3)c2)c1` [Compound 22]: the figures for the “MDR Ratio” value in assay [1] (Date 4/21/95) and in assay [1] (Date 5/12/95) were 12.4 and 1.3, respectively. Also, the Ki on FKBP12 amounted to 31 nM.

For the compound `COc1cc(C(=O)C(=O)N2CCCC[C@H]2C(=O)O[C@H](CCCc2ccccc2)c2cncc(-c3c(OC)cccc3OC)c2)cc(OC)c1OC` [Compound 24], in assay [1] (Date 5/12/95), the “MDR Ratio” value is given as > 14.0. The Ki on FKBP12 was found to be 0.5 nM.

Take `CCC/C=C(/c1cccnc1)c1cccc([C@@H](CCN2CCOCC2)OC(=O)[C@@H]2CCCCN2C(=O)C(=O)c2cc(OC)c(OC)c(OC)c2)c1` [Compound 26]: in assay [1] (Date 5/12/95), the “MDR Ratio” value turned out to be 8.8. Besides, at FKBP12, the Ki was 2.4 nM.

Take `CCC/C=C(/c1cccnc1)c1cccc([C@H](CCN2CCOCC2)OC(=O)[C@@H]2CCCCN2C(=O)C(=O)c2cc(OC)c(OC)c(OC)c2)c1` [Compound 27]: the “MDR Ratio” value in assay [1] (Date 5/12/95) was 12.7. In addition, the Ki on FKBP12 came to 260 nM.

For `CC/C=C(/c1cccnc1)c1cccc([C@H](CCCc2ccccc2)OC(=O)[C@@H]2CCCCN2C(=O)C(=O)c2cc(OC)c(OC)c(OC)c2)c1` [Compound 28], the “MDR Ratio” value in assay [1] (Date 5/12/95) was found to be 10.0. In addition, the Ki on FKBP12 was 20 nM.

Turning to `CCC/C=C(\c1cccnc1)c1cccc([C@@H](CCN2CCOCC2)OC(=O)[C@@H]2CCCCN2C(=O)C(=O)c2cc(OC)c(OC)c(OC)c2)c1` [Compound 30], in assay [1] (Date 5/12/95), the “MDR Ratio” value turned out to be 14.0. At FKBP12, the Ki is 27 nM.

In the case of `COc1cc(C(=O)C(=O)N2CCCC[C@H]2C(=O)O[C@H](/C(C)=C/[C@H]2CC[C@H](O)CC2)c2cncc(-c3c(OC)cccc3OC)c2)cc(OC)c1OC` [Compound 32], the “MDR Ratio” value in assay [1] (Date 5/12/95) was found to be 11.7. Moreover, at FKBP12, the Ki worked out at 9.8 nM.

As for `COCc1cccc(COC)c1-c1cncc([C@@H](OC(=O)[C@@H]2CCCCN2C(=O)C(=O)c2ccco2)/C(C)=C/[C@H]2CC[C@H](O)CC2)c1` [Compound 40], the “MDR Ratio” value in assay [1] (Date 5/12/95) amounted to 2.5. For the same compound, the Ki at FKBP12 is 500 nM.

With `CCOCc1cc2ccccc2n1-c1cccc([C@@H](OC(=O)[C@@H]2CCCCN2C(=O)C(=O)c2ccco2)/C(C)=C/[C@H]2CC[C@H](O)CC2)c1` [Compound 43], the “MDR Ratio” value in assay [1] (Date 5/12/95) came out at 14.0. For the same compound, the Ki at FKBP12 was determined as 180 nM.

Turning to `C=CCC/C=C(/c1cccnc1)c1ccc([C@@H](OC(=O)[C@@H]2CCCCN2C(=O)C(=O)C(C)(C)C)/C(C)=C/C2CCN(C)CC2)s1` [Compound 52], the “MDR Ratio” value in assay [1] (Date 4/21/95) is on record as 5.8; in assay [1] (Date 5/12/95), 4.1. Besides, the Ki on FKBP12 is 200 nM.

On to `COC/C=C(\c1cncc([C@@H](OC(=O)[C@@H]2CCCCN2C(=O)C(=O)CC(C)C)/C(C)=C/[C@H]2CC[C@H](O)CC2)c1)C1CCCCC1` [Compound 59], for which the “MDR Ratio” value in assay [1] (Date 5/12/95) is reported as 10.8. Further, the Ki at FKBP12 was determined as 71 nM.

With `CCOCc1cccc(COCC)c1-c1csc([C@H](CCN2CCOCC2)OC(=O)[C@@H]2CCCCN2C(=O)C(=O)C2CCOCC2)c1` [Compound 61], the “MDR Ratio” value in assay [1] (Date 5/12/95) is recorded as 2.5. Also, the Ki on FKBP12 was > 10000 nM.

`CCOCc1cccc(COCC)c1-c1cncc([C@H](CCN2CCOCC2)OC(=O)[C@@H]2CCCCN2C(=O)C(=O)C2(C)CCCCC2)c1` [Compound 76]: the “MDR Ratio” value in assay [1] (Date 5/12/95) stood at 6.4. Further, the Ki on FKBP12 was 400 nM.

With `CCOCc1cccc(COCC)c1-c1ccc([C@@H](CCN2CCOCC2)OC(=O)[C@@H]2CCCCN2C(=O)C(=O)C2(C)CCCCC2)s1` [Compound 79], the “MDR Ratio” value in assay [1] (Date 5/12/95) stood at 7.8. Moreover, the Ki at FKBP12 was determined as 12 nM.

As for `CCOCc1cccc(COCC)c1-c1cncc(C(CCN2CCOCC2)OC(=O)[C@@H]2CCCCN2C(=O)C(=O)C(C)(C)C(C)C)c1` (stereo partly drawn) [Compound 89], the “MDR Ratio” value in assay [1] (Date 5/12/95) was 5.0. For the same compound, the Ki at FKBP12 was 263 nM.

`C=CCC/C=C(/c1cccnc1)c1ccc(C(CCN2CCOCC2)OC(=O)[C@@H]2CCCCN2C(=O)C(=O)C(C)(C)C(C)C)s1` (stereo partly drawn) [Compound 90]: the “MDR Ratio” value in assay [1] (Date 5/12/95) is 7.4. The Ki on FKBP12 is 9 nM.

For the compound `C=CCC/C=C(\c1ccc(C(CCN2CCOCC2)OC(=O)[C@@H]2CCCCN2C(=O)C(=O)C(C)(C)C(C)C)s1)C1CCOCC1` (stereo partly drawn) [Compound 91], the “MDR Ratio” value in assay [1] (Date 5/12/95) amounted to 2.7. Moreover, the Ki at FKBP12 amounted to 8 nM.

For `CCC/C=C(\c1cncc(C(OC(=O)[C@@H]2CCCCN2C(=O)C(=O)C2(O)CCC(OC)CC2)/C(C)=C/c2ccncc2)c1)C1CCCCC1` (stereo partly drawn) [Compound 100], the “MDR Ratio” value in assay [1] (Date 5/12/95) is listed as < 14.0. Also, at FKBP12, the Ki worked out at 380 nM.

As for `CCCc1ccc(CCC)n1-c1cccc([C@@H](CCN2CCOCC2)OC(=O)[C@@H]2CCCCN2C(=O)C(=O)[C@@H]2CCCC[C@H]2C)c1` [Compound 105], the “MDR Ratio” value in assay [1] (Date 5/12/95) amounted to 5.4. Further, the Ki at FKBP12 turned out to be 94 nM.

With `CCCc1ccc(CCC)n1-c1cccc([C@@H](CCN2CCOCC2)OC(=O)[C@@H]2CCCCN2C(=O)C(=O)[C@@H]2C[C@H](C(C)(C)OC)CC=C2C)c1` [Compound 107], the “MDR Ratio” value in assay [1] (Date 5/12/95) came out at 8.8. Besides, the Ki on FKBP12 amounted to 7600 nM.

Consider `CCCc1ccc(CCC)n1-c1cccc([C@@H](CCN2CCOCC2)OC(=O)[C@@H]2CCCCN2C(=O)C(=O)[C@@H]2C[C@H](OCC)CC[C@H]2C)c1` [Compound 111], for which the “MDR Ratio” value in assay [1] (Date 5/12/95) is 9.3. In addition, the Ki at FKBP12 was found to be 800 nM.

For `CCCCc1ccc(C)n1-c1cccc([C@@H](CCN2CCOCC2)OC(=O)[C@@H]2CCCCN2C(=O)C(=O)[C@@H]2C[C@H](C(C)(C)OC)CC[C@H]2C)c1` [Compound 112], in assay [1] (Date 5/12/95), the “MDR Ratio” value amounted to 10.8. Besides, on FKBP12, the Ki worked out at 930 nM.

With `CCC/C(=C/COC)c1cncc([C@@H](CCN2CCOCC2)OC(=O)[C@@H]2CCCCN2C(=O)C(=O)C(C)(C)C(C)C)c1` [Compound 113], in assay [1] (Date 5/12/95), the “MDR Ratio” value is listed as 7.0. Also, the Ki on FKBP12 came out at 61 nM.

As for `CCC/C(=C/COC)c1cncc([C@@H](CCN2CCOCC2)OC(=O)[C@@H]2CCCCN2C(=O)C(=O)[C@@H]2C[C@H](C(C)(C)OC)CC[C@H]2C)c1` [Compound 123], the “MDR Ratio” value in assay [1] (Date 4/21/95) is recorded as 12.4. Also, at FKBP12, the Ki came to 2800 nM.

Consider `CCC/C=C(\c1cncc([C@@H](CCN2CCOCC2)OC(=O)[C@@H]2CCCCN2C(=O)C(=O)[C@@H]2C[C@H](C(C)(C)OC)CC[C@H]2C)c1)C(C)C` [Compound 129], for which, at FKBP12, the Ki was determined as 1200 nM.

Take `CCC/C=C(\c1cncc([C@@H](CCN2CCOCC2)OC(=O)[C@@H]2CCCCN2C(=O)C(=O)[C@@H]2C[C@H](OCC)CC[C@H]2C)c1)C(C)C` [Compound 130]: the Ki on FKBP12 was 490 nM.

Regarding `CCC/C(=C/COC)c1cncc(C(OC(=O)[C@@H]2CCCCN2C(=O)C(=O)[C@@H]2CCCC[C@H]2C)/C(C)=C/C2CCOCC2)c1` (stereo partly drawn) [Compound 131], on FKBP12, the Ki is 90 nM.

`CCC/C=C(\c1cncc([C@@H](CCN2CCOCC2)OC(=O)[C@@H]2CCCCN2C(=O)C(=O)[C@@H]2C[C@@H](OCC)CN2C(C)=O)c1)C(C)C` [Compound 132]: the Ki on FKBP12 is > 10000 nM.

As for `CCC/C=C(/C)c1cncc([C@@H](CCN2CCOCC2)OC(=O)[C@@H]2CCCCN2C(=O)C(=O)[C@@H]2C[C@H](C(C)(C)OC)CC[C@H]2C)c1` [Compound 133], the Ki at FKBP12 was 315 nM.

As to `COc1cccc2c1C(=O)c1c(O)c3c(c(O)c1C2=O)C[C@@](O)(C(=O)CO)C[C@@H]3O[C@H]1C[C@H](N)[C@H](O)[C@H](C)O1` [DXR, doxorubicin, reference compound], the IC50 is 2100 nM in assay [1] (L1210, read-out: IC50 DXR Alone, Date 4/21/95) and 700 nM in assay [1] (L1210, read-out: IC50 DXR Alone, Date 5/12/95).
